The experiment deals with T1, FLT-3 (Homo sapiens, UniProt P36888).
T1 construct: 0.02% BSA and 3 nM FLT-3
T1 sequence (P36888 27-993): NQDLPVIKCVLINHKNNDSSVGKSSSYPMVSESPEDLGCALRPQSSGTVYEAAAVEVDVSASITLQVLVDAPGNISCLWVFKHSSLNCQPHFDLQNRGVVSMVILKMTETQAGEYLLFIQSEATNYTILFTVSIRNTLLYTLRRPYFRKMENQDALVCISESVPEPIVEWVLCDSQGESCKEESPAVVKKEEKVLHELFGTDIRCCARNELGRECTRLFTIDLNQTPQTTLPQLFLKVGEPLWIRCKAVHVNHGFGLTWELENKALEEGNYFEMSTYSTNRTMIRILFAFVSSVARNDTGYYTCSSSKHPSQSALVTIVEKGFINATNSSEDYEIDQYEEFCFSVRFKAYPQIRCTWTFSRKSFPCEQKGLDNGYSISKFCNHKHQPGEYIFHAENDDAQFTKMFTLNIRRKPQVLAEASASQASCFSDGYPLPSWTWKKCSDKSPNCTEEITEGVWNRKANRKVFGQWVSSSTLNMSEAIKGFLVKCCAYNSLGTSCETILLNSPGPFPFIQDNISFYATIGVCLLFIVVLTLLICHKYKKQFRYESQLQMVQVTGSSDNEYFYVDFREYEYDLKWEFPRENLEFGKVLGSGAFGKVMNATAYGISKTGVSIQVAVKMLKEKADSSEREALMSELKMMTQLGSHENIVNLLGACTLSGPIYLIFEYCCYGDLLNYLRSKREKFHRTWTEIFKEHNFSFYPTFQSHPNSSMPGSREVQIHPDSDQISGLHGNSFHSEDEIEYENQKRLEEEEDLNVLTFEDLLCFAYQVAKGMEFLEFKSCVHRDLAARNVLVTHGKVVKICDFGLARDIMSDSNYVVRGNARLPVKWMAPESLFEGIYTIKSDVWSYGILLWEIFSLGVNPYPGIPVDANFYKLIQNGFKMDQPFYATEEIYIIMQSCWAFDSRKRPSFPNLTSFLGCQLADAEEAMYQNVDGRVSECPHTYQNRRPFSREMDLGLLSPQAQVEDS
In words: Inhibition of FLT-3, radiometric filter-binding assay. Type of experiment: biochemical. The settings on record: 90 μM ATP, 0.5 mg/mL pE4Y, room temperature. A digest of the protocol:
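Radiometric filter-binding assay of FLT-3 (3 nM in Solution 2; final conc not stated) phosphorylating poly(Glu,Tyr) 4:1 (0.5 mg/mL) with 90 μM ATP plus [γ-33P]ATP, in HEPES pH 7.5, MgCl2, NaCl, DTT, BSA, 2.5% DMSO. 12-point titration, typically 0.01–5 μM, 20 min at room temperature; TCA-stopped, filtered, scintillation-counted; IC50 or Ki fitted.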

We go through 18 compounds from US7446199B2, “Compositions useful as inhibitors of protein kinases” (Vertex Pharmaceuticals Incorporated, priority 2003, dated 2008).

pKi: −log10 of the molar value.

As for `CN1CCN(C(=O)[C@H]2C[C@@H]2c2cnc3[nH]cc(-c4oncc4-c4cccc(F)c4F)c3c2)CC1` (relative stereo) [Compound 142, trans-(2-{3-[4-(2,3-Difluoro-phenyl)-isoxazol-5-yl]-1H-pyrrolo[2,3-b]pyridin-5-yl}-cyclopropyl)-(4-methyl-piperazin-1-yl)-methanone], the pKi (in general, the negative decadic logarithm of the Ki, by convention in mol/L) is greater than 6.70.

`Fc1cccc(-c2cnoc2-c2n[nH]c3ncccc23)c1F` [Compound 31, 3-(4-(2,3-difluorophenyl)isoxazol-5-yl)-1H-pyrazolo[3,4-b]pyridine] had a pKi of 4.90 to 6.00.

`Fc1cccc(-c2cnoc2-c2c[nH]c3ccc(-c4ccncc4)cc23)c1F` [Compound 34, 3-[4-(2,3-Difluoro-phenyl)-isoxazol-5-yl]-5-pyridin-4-yl-1H-indole]: the negative-log Ki (pKi) was 4.90 to 6.00.

As for `Fc1cc(F)c(F)c(-c2cnoc2-c2c[nH]c3ncccc23)c1` [Compound 39, 3-[4-(2,3,5-Trifluoro-phenyl)-isoxazol-5-yl]-1H-pyrrolo [2,3-b]pyridine], the pKi was 4.90 to 6.00. Take `Fc1ccc(F)c(-c2cnoc2-c2c[nH]c3ncccc23)c1F` [Compound 41, 3-[4-(2,3,6-Trifluoro-phenyl)-isoxazol-5-yl]-1H-pyrrolo [2,3-b]pyridine]: the negative-log Ki (pKi) is 4.90 to 6.00.

`Fc1cccc(-c2cnoc2-c2c[nH]c3ncc(Cl)cc23)c1F` [Compound 44, 3-[4-(2,3-Difluoro-phenyl)-isoxazol-5-yl]-5-chloro-1H-pyrrolo[2,3-b]pyridine] showed a negative logarithm of the Ki (pKi) of 4.90 to 6.00. As to `Fc1cnc2[nH]cc(-c3oncc3-c3cccc(F)c3F)c2c1` [Compound 45, 3-[4-(2,3-Difluoro-phenyl)-isoxazol-5-yl]-5-fluoro-1H-pyrrolo[2,3-b]pyridine], the negative logarithm of the Ki (pKi) is 4.90 to 6.00. `Cc1cnc2[nH]cc(-c3oncc3-c3cccc(F)c3F)c2c1` [Compound 46, 3-[4-(2,3-Difluoro-phenyl)-isoxazol-5-yl]-5-methyl-1H-pyrrolo[2,3-b]pyridine] had a pKi of 6.00 to 6.70. The compound `OCc1cnc2[nH]cc(-c3oncc3-c3cccc(F)c3F)c2c1` [Compound 55, {3-[4-(2,3-Difluoro-phenyl)-isoxazol-5-yl]-1H-pyrrolo[2,3-b]pyridin-5-yl}-methanol] gave a negative-log Ki (pKi) of 4.90 to 6.00.

`Fc1cccc(-c2cnoc2-c2c[nH]c3nc(Cl)c(-c4ccncc4)cc23)c1F` [Compound 103, 6-Chloro-3-[4-(2,3-difluoro-phenyl)-isoxazol-5-yl]-5-pyridin-4-yl-1H-pyrrolo[2,3-b]pyridine] had a negative-log Ki (pKi) of 6.00 to 6.70. The compound `O=C(c1cnc2[nH]cc(-c3oncc3-c3cccc(F)c3F)c2c1)N1CCCC1` [Compound 104, {3-[4-(2,3-Difluoro-phenyl)-isoxazol-5-yl]-1H-pyrrolo[2,3-b]pyridin-5-yl}-pyrrolidin-1-yl-methanone] had a negative-log Ki (pKi) of 4.90 to 6.00. `COc1cnc2[nH]cc(-c3nncn3-c3cccc(F)c3F)c2c1` [Compound 108, 3-[4-(2,3-Difluoro-phenyl)-4H-[1,2,4]triazol-3-yl]-5-methoxy-1H-pyrrolo[2,3-b]pyridine] showed a pKi of 4.90 to 6.00. For `Fc1cccc(-n2cnnc2-c2c[nH]c3ncc(-c4ccc(N5CCNCC5)nc4)cc23)c1F` [Compound 111, 3-[4-(2,3-Difluoro-phenyl)-4H-[1,2,4]triazol-3-yl]-5-(6-piperazin-1-yl-pyridin-3-yl)-1H-pyrrolo[2,3-b]pyridine] the value was 4.90 to 6.00. Take `Fc1cccc(-c2cnoc2-c2c[nH]c3ncc(CCn4cncn4)cc23)c1F` [Compound 132, 3-[4-(2,3-Difluoro-phenyl)-isoxazol-5-yl]-5-(2-[1,2,4]triazol-1-yl-ethyl)-1H-pyrrolo[2,3-b]pyridine]: the negative logarithm of the Ki (pKi) is 6.00 to 6.70.

In turn, `CN(C)C1CCC(c2cnc3[nH]cc(-c4oncc4-c4cccc(F)c4F)c3c2)CC1` (stereo not drawn) [Compound 141, (4-{3-[4-(2,3-Difluoro-phenyl)-isoxazol-5-yl]-1H-pyrrolo[2,3-b]pyridin-5-yl}-cyclohexyl)-dimethylamine] showed a negative logarithm of the Ki (pKi) of 6.00 to 6.70.

`NC(=O)c1ccc(-c2cnc3[nH]cc(-c4oncc4-c4cccc(F)c4F)c3c2)cc1` [Compound 153] had a negative logarithm of the Ki (pKi) greater than 6.70. For `OB(O)c1cnc2[nH]cc(-c3oncc3-c3cccc(F)c3F)c2c1` [Compound 154] the value was 6.00 to 6.70; for `C[N+]1(C)CCN(c2ccc(-c3cnc4[nH]cc(-c5oncc5-c5cccc(F)c5F)c4c3)cc2)CC1` [Compound 155], greater than 6.70.
